Experimental data reported in patent US20070249732A1, “USE OF CERTAIN PHENYL NAPTHYL COMPOUNDS FOR PROTECTION OF NEURONS AND OLIGODENDROCYTES IN THE TREATMENT OF MULTIPLE SCLEROSIS (MS)” (AVENTIS PHARMACEUTICALS INC., priority 2005, published 2007).
Where two headings read alike, the source gives them in different places.

Key:
ERα = molecular target: T1, ERα (Homo sapiens, UniProt P03372); test: Fluorescence Polarization Competition Assay, ERα binding affinity; details: Fluormone ligand, read-out: Affinity for ER α
T1 construct: purchased Panvera P2698
T1 sequence (P03372 1-595): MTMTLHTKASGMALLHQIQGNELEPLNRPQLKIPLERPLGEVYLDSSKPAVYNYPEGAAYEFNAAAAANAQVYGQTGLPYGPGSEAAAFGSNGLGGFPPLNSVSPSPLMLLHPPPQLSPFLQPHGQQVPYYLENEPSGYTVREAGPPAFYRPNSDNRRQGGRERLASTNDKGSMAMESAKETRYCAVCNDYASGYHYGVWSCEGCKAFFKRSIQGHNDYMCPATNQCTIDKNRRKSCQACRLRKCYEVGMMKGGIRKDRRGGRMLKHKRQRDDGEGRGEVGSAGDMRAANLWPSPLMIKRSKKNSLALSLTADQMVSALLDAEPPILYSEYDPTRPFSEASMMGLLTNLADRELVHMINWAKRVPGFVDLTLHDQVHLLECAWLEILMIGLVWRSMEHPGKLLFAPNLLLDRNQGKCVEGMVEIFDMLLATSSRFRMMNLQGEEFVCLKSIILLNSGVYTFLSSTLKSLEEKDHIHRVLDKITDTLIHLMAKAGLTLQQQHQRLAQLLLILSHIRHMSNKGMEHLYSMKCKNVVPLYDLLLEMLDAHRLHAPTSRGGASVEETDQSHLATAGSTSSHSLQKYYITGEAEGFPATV
Method: (§1) A number of compounds were tested for ERα and ERβ binding affinity using Panvera's Fluorescence Polarization Competition Assay Kits (cat. nos. P2698 and P2700). Briefly, ERα or ERβ were thawed on ice from −80° C. An estrogen receptor and fluorescent ligand (Fluormone TM) complex was formed at a 15/1 molar ratio for ERα and at a 10/1 molar ratio for ERβ (2X complex). Serial dilutions of the test compounds were made in assay buffer and the assay was initiated by adding 50 ul of the 2X receptor-ligand complex to 50 ul of compound solution in black 96-well plates. Zero percent competition (theoretical maximum polarization) was measured in wells containing 50 ul of buffer and 50 ul of the 2X receptor-ligand complex. The plates were incubated after gentle shaking in the dark at room temperature. Polarization values (mP) were read no longer than 7 hours after the reaction was started with a FARCyte Fluorescent reader (Amersham) at excitation and emission wavelengths of 485 nm and 535 nm, respectively. Data was analyzed using non-linear regression and IC50 values determined using GraphPad Prism. Estradiol was used as the reference compound.

ERβ = molecular target: T2, ERβ (Homo sapiens, UniProt Q92731); test: Fluorescence Polarization Competition Assay, ERβ binding affinity; details: Fluormone ligand, read-out: Affinity for ER β
T2 construct: purchased Panvera P2700
T2 sequence (Q92731 whole entry): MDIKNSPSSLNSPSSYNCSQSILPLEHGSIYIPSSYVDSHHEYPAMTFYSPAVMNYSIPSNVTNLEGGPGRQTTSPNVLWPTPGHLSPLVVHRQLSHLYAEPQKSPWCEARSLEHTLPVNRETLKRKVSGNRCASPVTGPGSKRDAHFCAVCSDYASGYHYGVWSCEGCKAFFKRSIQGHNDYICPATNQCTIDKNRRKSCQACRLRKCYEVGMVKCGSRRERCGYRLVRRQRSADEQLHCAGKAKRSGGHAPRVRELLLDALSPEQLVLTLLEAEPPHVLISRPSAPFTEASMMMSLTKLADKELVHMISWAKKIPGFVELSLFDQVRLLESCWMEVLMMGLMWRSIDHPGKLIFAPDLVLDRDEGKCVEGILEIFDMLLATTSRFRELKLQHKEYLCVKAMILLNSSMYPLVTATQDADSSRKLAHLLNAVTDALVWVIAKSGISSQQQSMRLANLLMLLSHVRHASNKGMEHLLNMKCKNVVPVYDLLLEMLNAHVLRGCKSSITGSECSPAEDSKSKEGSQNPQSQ
Method: as §1

[1] = test system: primary rat oligodendrocyte progenitor cells; test: Oligodendrocyte Toxicity Assay (LDH), progenitor cells; format: cell-based; details: Oligodendrocyte progenitor cell, 1 hour pretreatment, LDH after 24 hours
Method: (§2) Primary rat oligodendrocyte progenitor cells were obtained from the cerebra of 2-3 day old postnatal rats (Sprague Dawley). The meninges were removed and tissue was mechanically dissociated. Cells were plated on T75 flasks and fed with DMEM +10% FBS.
(§3) Enriched OLPs were collected by mechanical separation from the astrocytic monolayer and were expanded in serum free media (SFM) supplemented with the mitogens, PDGF-AA (10 ng/mI) and FGF-2 (10 ng/mI).
Cells were plated in 96-well plates, 10,000 per well. Medium was changed to fresh medium and cells were pretreated with compounds for 1 hour. Toxins were added to give the following final concentrations: Sin-110 mM, Camptothecin 1 μM
(§4) After 24 hours, medium was removed and assayed for LDH activity using the Promega cytotox 96 kit (catalog# G1780). Results were calculated as percent protection against toxin-induced toxicity.
(§5) These compounds have been assessed for their efficacy in protection against cell death produced by toxic agents such as SIN-1 (3-morpholino-sydnonimine, producing peroxynitrite) and camptothecin. The target cells assessed in vitro are primary cultures of rodent oligodendrocyte progenitors and their mature counterparts.

mature oligodendrocytes = test: Oligodendrocyte Toxicity Assay (LDH), mature oligodendrocytes; format: cell-based; details: Rattus norvegicus; protection against SIN-1-induced toxicity; 1 hour pretreatment, LDH after 24 hours
Method: as §2, §3
To generate mature oligodendrocytes, progenitor cells were switched to SFM supplemented with IGF-1 (10ng/ml) 24 hours after plating and cells were grown under these conditions for 7 days prior to experimental assays.
Cells were plated in 96-well plates, 10,000 per well. Medium was changed to fresh medium and cells were pretreated with compounds for 1 hour. […]
as §4, §5

IC50 (ERα): 35.4 nM
IC50 (ERβ): 3 nM
Compound: Oc1ccc(-c2ccc3cc(O)ccc3c2Cl)cc1 [5-chloro-6-(4-hydroxyphenyl)-2-naphthalenol]
IC50 ([1]; protection against SIN-1-induced toxicity, read-out: Progenitor Oligodendrocytes SIN-1 IC50): 2170 nM
IC50 ([1]; protection against camptothecin (1 μM)-induced toxicity, read-out: Progenitor Oligodendrocytes Camptothecin IC50): < 3000 nM
IC50 (mature oligodendrocytes): > 30000 nM
